In brackets after ≈: the same amount, converted by molar mass. Structures can show the parent of a compound that is named as a salt. Where two headings read alike, the source gives them in different places. One block for each compound: values may come before it.
Tests used:
Format in all cases: physicochemical
[1] = Solubility test in water, SGF, FaSSIF and FeSSIF (37° C., HPLC); conditions: for solubility at 30 min / solubility at 2 h / solubility at 4 h / solubility at 24 h: 37 °C, thermodynamic from solid, read-out: Solubility (based on a compound of formula I); for solubility at 30 min / solubility at 2 h / solubility at 4 h / solubility at 24 h / Solubility (based on a compound of formula I): 37° C.; for difference in the equilibrium solubilities (24 h) between crystal form 1 and crystal form D: FaSSIF and FeSSIF, result in words
Method: 4 samples, each of crystal form 1 of a compound of formula I and crystal form D of a phosphate of a compound of formula I each with appropriate amount were weighed and placed into a 4 mL transparent glass bottle respectively, 1 mL of water, simulated gastric fluid (SGF), fasted-state simulated intestinal fluid (FaSSIF) and fed-state simulated intestinal fluid (FeSSIF) were added respectively, sample suspension was obtained and quickly placed on a shaker (37° C., 200 rpm) and the shaker was shaked, the samples were observed 5 minutes later, a quantity of samples or medium were supplemented to obtain mild suspension, samples were taken at 30 minutes, 2 hours, 4 hours and 24 hours, respectively, centrifuged for 10 minutes at 12000 rpm, the supernatants were collected, diluted appropriately and then were tested by a higher performance liquid chromatography.
The sample concentrations were calculated with an external standard method.

[2] = Dynamic vapor sorption (DVS) hygroscopicity test; conditions: for Hygroscopicity: weight gain by moisture absorption: 0% RH-95% RH, 25° C.; for change of crystal form before and after the DVS test: result in words
Method: (§1) DSC, TGA and DVS tests were conducted for crystal form A of a hydrochloride of a compound of formula I, crystal form B of a sulfate of a compound of formula I, crystal form C of a hydrobromide of a compound of formula I and crystal form D of a phosphate of a compound of formula I.

[3] = Stability test at high temperature and in accelerated conditions (HPLC purity, XRPD, DSC); conditions: for Stability study: Crystal form: 2 weeks (XRPD); for 2-week physical and chemical stabilities: high temperature (60° C.) and accelerated conditions (40° C./75% RH), result in words
Method: About 1 mg of crystal form 1 of a compound of formula I and 1 mg of crystal form D of a phosphate of a compound of formula I samples were weighed and each was placed into a 40 mL transparent glass bottle, the samples were placed in a stability chamber in accelerated conditions (40° C./75% RH, open) and at a high temperature (60° C., sealed) respectively. For the open samples, the bottle cap was removed and the bottle neck was covered with aluminium-foil paper stabbed with pinholes to avoid cross contamination; for the closed samples, each bottle was covered with a cap and sealed tightly. Samples were taken at week 1 and week 2, respectively, after diluted with diluent (acetonitrile/water (1/1) (v/v), the liquid phases were injected according to the chromatographic conditions in Table 12 to determine sample purities.
The sample purities were calculated with an area normalization method.

[4] = DSC test of salt crystal forms (thermostability); conditions: single and higher melting points, result in words
Method: as §1

- solubility at 30 min ([1]; fasted-state simulated intestinal fluid (FaSSIF), fassif, Fasted-state simulated intestinal fluid (FaSSIF), 30 min): 170 µg/mL (≈ 521 µM)
- solubility at 2 h ([1]; fasted-state simulated intestinal fluid (FaSSIF), fassif, Fasted-state simulated intestinal fluid (FaSSIF), 2 h): 170 µg/mL (≈ 521 µM)
- solubility at 4 h ([1]; fasted-state simulated intestinal fluid (FaSSIF), fassif, Fasted-state simulated intestinal fluid (FaSSIF), 4 h): 170 µg/mL (≈ 521 µM)
- solubility at 24 h ([1]; fasted-state simulated intestinal fluid (FaSSIF), fassif, Fasted-state simulated intestinal fluid (FaSSIF), 24 h): 160 µg/mL (≈ 490 µM)
- solubility at 30 min ([1]; fed-state simulated intestinal fluid (FeSSIF), fessif, Fed-state simulated intestinal fluid (FeSSIF), 30 min): 260 µg/mL (≈ 797 µM)
- solubility at 2 h ([1]; fed-state simulated intestinal fluid (FeSSIF), fessif, Fed-state simulated intestinal fluid (FeSSIF), 2 h): 230 µg/mL (≈ 705 µM)
- solubility at 4 h ([1]; fed-state simulated intestinal fluid (FeSSIF), fessif, Fed-state simulated intestinal fluid (FeSSIF), 4 h): 220 µg/mL (≈ 674 µM)
- solubility at 24 h ([1]; fed-state simulated intestinal fluid (FeSSIF), fessif, Fed-state simulated intestinal fluid (FeSSIF), 24 h): 240 µg/mL (≈ 735 µM)
- solubility at 30 min ([1]; simulated gastric fluid (SGF), simulated gastric fluid, Simulated gastric fluid (SGF), 30 min): 30200 µg/mL (≈ 92600 µM)
- solubility at 2 h ([1]; simulated gastric fluid (SGF), simulated gastric fluid, Simulated gastric fluid (SGF), 2 h): 29700 µg/mL (≈ 91100 µM)
- solubility at 4 h ([1]; simulated gastric fluid (SGF), simulated gastric fluid, Simulated gastric fluid (SGF), 4 h): 29500 µg/mL (≈ 90300 µM)
- solubility at 24 h ([1]; simulated gastric fluid (SGF), simulated gastric fluid, Simulated gastric fluid (SGF), 24 h (equilibrium)): 30200 µg/mL (≈ 92500 µM)
Compound: C[C@@H](O)c1nc2cnc3ccoc3c2n1[C@H]1CC[C@H](CC#N)OC1 [2-[(2R,5S)-5-[2-[(R)-1-hydroxyethyl]furo[3,2-b]imidazo[4,5-d]pyridin-1-yl]tetrahydropyran-2-yl]acetonitrile]

- Hygroscopicity: weight gain by moisture absorption ([2]; DVS): 5.2%
- Hygroscopicity: weight gain by moisture absorption ([2]; DVS, listed as crystal form 1 of a compound of formula I): 5.2%
- water remaining after desorption ([2]; DVS, desorption 95% RH to 0% RH): 2%
- Stability study (purity) ([3]; 0 day): 98.74 Area %
- Stability study (purity) ([3]; 40° C./75% RH, open, 1 week): 98.71 Area %
- Stability study (purity) ([3]; 40° C./75% RH, open, 2 weeks): 98.77 Area %
- Stability study: Crystal form ([3]; 40° C./75% RH, open): Unchanged
- Stability study (purity) ([3]; 60° C., sealed, 1 week): 98.73 Area %
- Stability study (purity) ([3]; 60° C., sealed, 2 weeks): 98.74 Area %
- Stability study: Crystal form ([3]; 60° C., sealed): Unchanged
- 2-week physical and chemical stabilities [3]: good
- difference in the equilibrium solubilities (24 h) between crystal form 1 and crystal form D [1]: no obvious difference
- Solubility (based on a compound of formula I) ([1]; Fasted-state simulated intestinal fluid (FaSSIF), 30 min): 170 µg/mL
- Solubility (based on a compound of formula I) ([1]; Fasted-state simulated intestinal fluid (FaSSIF), 2 h, listed as Crytstal form 1 of a compound of formula I): 190 µg/mL
- Solubility (based on a compound of formula I) ([1]; Fasted-state simulated intestinal fluid (FaSSIF), 4 h, listed as Crytstal form 1 of a compound of formula I): 160 µg/mL
- Solubility (based on a compound of formula I) ([1]; Fasted-state simulated intestinal fluid (FaSSIF), 24 h, listed as Crytstal form 1 of a compound of formula I): 170 µg/mL
- Solubility (based on a compound of formula I) ([1]; Simulated gastric fluid (SGF), 30 min, listed as Crytstal form 1 of a compound of formula I): 16520 µg/mL
- Solubility (based on a compound of formula I) ([1]; Simulated gastric fluid (SGF), 2 h, listed as Crytstal form 1 of a compound of formula I): 16710 µg/mL
- Solubility (based on a compound of formula I) ([1]; Simulated gastric fluid (SGF), 4 h, listed as Crytstal form 1 of a compound of formula I): 16880 µg/mL
- Solubility (based on a compound of formula I) ([1]; Simulated gastric fluid (SGF), 24 h (equilibrium), listed as Crytstal form 1 of a compound of formula I): 16420 µg/mL
- Solubility (based on a compound of formula I) ([1]; Water, 30 min, listed as Crytstal form 1 of a compound of formula I): 160 µg/mL
- Solubility (based on a compound of formula I) ([1]; Water, 2 h, listed as Crytstal form 1 of a compound of formula I): 180 µg/mL
- Solubility (based on a compound of formula I) ([1]; Water, 4 h, listed as Crytstal form 1 of a compound of formula I): 160 µg/mL
- Solubility (based on a compound of formula I) ([1]; Water, 24 h (equilibrium), listed as Crytstal form 1 of a compound of formula I): 180 µg/mL
Compound: C[C@@H](O)c1nc2cnc3ccoc3c2n1[C@H]1CC[C@H](CC#N)OC1 [Crystal form 1 of a compound of formula I] [2-[(2R,5S)-5-[2-[(R)-1-hydroxyethyl]furo[3,2-b]imidazo[4,5-d]pyridin-1-yl]tetrahydropyran-2-yl]acetonitrile]

- Hygroscopicity: weight gain by moisture absorption ([2]; DVS): 4.7%
- Hygroscopicity: weight gain by moisture absorption ([2]; DVS, listed as crystal form D of a phosphate of a compound of formula I): 4.7%
- change of crystal form before and after the DVS test [2]: no significant changes
- Stability study (purity) ([3]; 0 day): 99.13 Area %
- Stability study (purity) ([3]; 40° C./75% RH, open, 1 week): 99.11 Area %
- Stability study (purity) ([3]; 40° C./75% RH, open, 2 weeks): 99.10 Area %
- Stability study: Crystal form ([3]; 40° C./75% RH, open): Unchanged
- Stability study (purity) ([3]; 60° C., sealed, 1 week): 99.11 Area %
- Stability study (purity) ([3]; 60° C., sealed, 2 weeks): 99.11 Area %
- Stability study: Crystal form ([3]; 60° C., sealed): Unchanged
- 2-week physical and chemical stabilities [3]: good
- thermostability of the crystal form [4]: relatively good
- difference in the equilibrium solubilities (24 h) between crystal form 1 and crystal form D [1]: no obvious difference
- Solubility (based on a compound of formula I) ([1]; Fed-state simulated intestinal fluid (FeSSIF), 30 min): 360 µg/mL
- Solubility (based on a compound of formula I) ([1]; Fed-state simulated intestinal fluid (FeSSIF), 2 h): 220 µg/mL
- Solubility (based on a compound of formula I) ([1]; Fed-state simulated intestinal fluid (FeSSIF), 4 h): 190 µg/mL
- Solubility (based on a compound of formula I) ([1]; Fed-state simulated intestinal fluid (FeSSIF), 24 h): 210 µg/mL
- equilibrium solubility (24 h) relative to crystal form 1 of a compound of formula I ([1]; SGF): 2 times
- Solubility (based on a compound of formula I) ([1]; Water, 30 min): 1850 µg/mL
- Solubility (based on a compound of formula I) ([1]; Water, 2 h): 1780 µg/mL
- Solubility (based on a compound of formula I) ([1]; Water, 4 h): 1730 µg/mL
- Solubility (based on a compound of formula I) ([1]; Water, 24 h (equilibrium)): 1800 µg/mL
- equilibrium solubility (24 h) relative to crystal form 1 of a compound of formula I ([1]; water): 10 times
Compound: C[C@@H](O)c1nc2cnc3ccoc3c2n1[C@H]1CC[C@H](CC#N)OC1 [Crystal form D of a phosphate of a compound of formula I] [2-[(2R,5S)-5-[2-[(R)-1-hydroxyethyl]furo[3,2-b]imidazo[4,5-d]pyridin-1-yl]tetrahydropyran-2-yl]acetonitrile]

- Hygroscopicity: weight gain by moisture absorption ([2]; DVS): 9.4%
- Hygroscopicity: weight gain by moisture absorption ([2]; DVS, listed as crystal form B of a sulfate of a compound of formula I): 9.4%
- change of crystal form before and after the DVS test [2]: no significant changes
- thermostability of the crystal form [4]: relatively good
Compound: C[C@@H](O)c1nc2cnc3ccoc3c2n1[C@H]1CC[C@H](CC#N)OC1 [Crystal form B of a sulfate of a compound of formula I] [2-[(2R,5S)-5-[2-[(R)-1-hydroxyethyl]furo[3,2-b]imidazo[4,5-d]pyridin-1-yl]tetrahydropyran-2-yl]acetonitrile]
